Data: US20200147059A1, “NEW THERAPEUTIC USES OF ENZYME INHIBITORS” (Proximagen, LLC, priority 2017, published 2020)
Blank lines part the entries; values can stand above or below the molecule they belong to.

Columns and labels:
[1] = target: T1, VAP-1 (Homo sapiens, UniProt Q16853); conditions: known; cited from earlier work
T1 sequence (Q16853 1-763): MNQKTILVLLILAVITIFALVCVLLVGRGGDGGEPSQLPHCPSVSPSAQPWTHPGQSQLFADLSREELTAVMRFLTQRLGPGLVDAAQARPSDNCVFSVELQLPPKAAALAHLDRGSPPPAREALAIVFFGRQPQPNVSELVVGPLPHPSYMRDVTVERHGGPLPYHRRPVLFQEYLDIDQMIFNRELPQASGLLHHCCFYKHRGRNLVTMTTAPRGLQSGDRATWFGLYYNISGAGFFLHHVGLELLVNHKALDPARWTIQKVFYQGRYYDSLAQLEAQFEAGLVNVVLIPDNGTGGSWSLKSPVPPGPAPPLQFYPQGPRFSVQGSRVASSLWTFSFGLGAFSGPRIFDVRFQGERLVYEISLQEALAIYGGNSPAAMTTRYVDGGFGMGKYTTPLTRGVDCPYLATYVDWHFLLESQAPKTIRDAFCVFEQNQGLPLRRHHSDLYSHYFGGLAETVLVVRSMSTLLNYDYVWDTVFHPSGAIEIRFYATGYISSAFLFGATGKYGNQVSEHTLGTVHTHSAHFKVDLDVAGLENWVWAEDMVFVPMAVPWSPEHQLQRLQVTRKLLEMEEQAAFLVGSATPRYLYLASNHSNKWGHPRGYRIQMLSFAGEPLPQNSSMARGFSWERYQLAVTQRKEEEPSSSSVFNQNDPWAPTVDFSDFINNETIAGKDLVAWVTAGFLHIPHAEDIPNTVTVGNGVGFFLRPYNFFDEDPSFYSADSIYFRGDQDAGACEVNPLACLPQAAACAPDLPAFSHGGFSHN

[2] = target: T2, human VAP-1 (SSAO) (Homo sapiens, UniProt Q16853); assay: VAP-1 Inhibition Assay; type: biochemical; conditions: purified recombinantly expressed human VAP-1 (SSAO), benzylamine substrate, room temperature
T2 construct: made in house
T2 sequence (Q16853 29-763 limits assumed): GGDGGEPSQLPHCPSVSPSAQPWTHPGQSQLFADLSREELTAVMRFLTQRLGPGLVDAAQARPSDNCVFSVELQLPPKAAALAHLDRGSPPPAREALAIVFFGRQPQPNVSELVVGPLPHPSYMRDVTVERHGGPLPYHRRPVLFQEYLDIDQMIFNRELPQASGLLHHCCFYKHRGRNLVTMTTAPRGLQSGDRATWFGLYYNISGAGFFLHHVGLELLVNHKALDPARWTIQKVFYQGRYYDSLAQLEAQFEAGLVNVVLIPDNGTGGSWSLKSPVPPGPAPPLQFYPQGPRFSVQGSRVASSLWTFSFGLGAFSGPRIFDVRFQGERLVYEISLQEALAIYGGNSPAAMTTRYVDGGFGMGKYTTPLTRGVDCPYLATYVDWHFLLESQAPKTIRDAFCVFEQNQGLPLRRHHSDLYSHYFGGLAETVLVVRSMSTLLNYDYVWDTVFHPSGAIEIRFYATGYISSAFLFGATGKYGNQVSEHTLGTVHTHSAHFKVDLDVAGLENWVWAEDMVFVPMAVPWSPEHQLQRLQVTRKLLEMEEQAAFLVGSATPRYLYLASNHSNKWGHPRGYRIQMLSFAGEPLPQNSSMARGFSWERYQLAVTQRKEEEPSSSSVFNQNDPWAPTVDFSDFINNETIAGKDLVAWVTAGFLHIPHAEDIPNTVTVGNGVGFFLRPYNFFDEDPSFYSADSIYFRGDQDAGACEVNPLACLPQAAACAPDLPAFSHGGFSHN
Protocol: This assay is performed at room temperature with purified recombinantly expressed human VAP-1 (SSAO). Enzyme was prepared essentially as described in Ohman et al. (Protein Expression and Purification 46 (2006) 321-331). The enzyme activity is assayed with benzylamine as substrate by measuring either benzaldehyde production, using 14C-labeled substrate, or by utilizing the production of hydrogen peroxide in a horseradish peroxidise (HRP) coupled reaction. Briefly, test compounds are dissolved in dimethyl sulfoxide (DMSO) to a concentration of 10 mM. Dose-response measurements are assayed by either creating 1:10 serial dilutions in DMSO to produce a 7 point curve or by making 1:3 serial dilutions in DMSO to produce 11 point curves. The top concentrations are adjusted depending on the potency of the compounds and subsequent dilution in reaction buffer yielded a final DMSO concentration ≤2%.
Hydrogen peroxide detection: In a horseradish peroxidise (HRP) coupled reaction, hydrogen peroxide oxidation of 10-acetyl-3,7-dihydroxyphenoxazine produces resorufin, which is a highly fluorescent compound (Zhout and Panchuk-Voloshina. Analytical Biochemistry 253 (1997) 169-174; AmplexR Red Hydrogen Peroxide/peroxidise Assay kit, Invitrogen A22188). Enzyme and compounds in 50 mM sodium phosphate, pH 7.4 are set to pre-incubate in flat-bottomed microtiter plates for approximately 15 minutes before initiating the reaction by addition of a mixture of HRP, benzylamine and Amplex reagent. Benzylamine concentration is fixed at a concentration corresponding to the Michaelis constant, determined using standard procedures. Fluorescence intensity is then measured at several time points during 1-2 hours, exciting at 544 nm and reading the emission at 590 nm. For the human SSAO assay final concentrations of the reagents in the assay wells are: SSAO enzyme 1 mg/ml, benzylamine 100 μM, Amplex reagent 20 μM, HRP 0.1 U/mL and varying concentrations of test compound. The inhibition is measured as % decrease of the signal compared to a control without inhibitor (only diluted DMSO). The background signal from a sample containing no SSAO enzyme is subtracted from all data points. Data is fitted to a four parameter logistic model and IC50 values are calculated, for example by using the GraphPad Prism 4 or XLfit 4 programs.

[3] = tested on: sumatriptan-primed rats; assay: stress induced allodynia in a rat model of medication overuse headache (MOH); type: in vivo; conditions: bright light stress, oral 33.3 mg/ml, 3 ml/kg, measured day 21 over 5 h
Protocol: The effects of compounds on stress induced allodynia in a rat model of medication overuse headache (MOH) The effects of compounds on stress induced cephalic and extracephalic allodynia in sumatriptan-primed rats was tested.
Sprague Dawley rats were implanted with osmotic minipumps (model 2001; Alzet, Cupertino, Calif., USA) providing continuous infusion of sumatriptan (0.6 mg/kg/day, s.c) or vehicle (saline, 0.9% NaCl) for 7 days. Mechanical facial (FIG. 1; A) and hindpaw (FIG. 1; C) allodynia was measured during a 19 day time course.
On day 20, when mechanical thresholds are at basal levels, all rats received either 4-{5-[3-(4-Fluorophenyl)-3H-imidazo[4,5-c]pyridin-2-yl]pyridin-2-yl}morpholine (compound 4) or vehicle orally (33.3 mg/ml, Dose 3 ml/kg) and then they were exposed to bright lights for 1 h (bright light stress; BLS). Rats received a second dose of the assigned treatment in the afternoon.
On day 21 all rats received a third dose of the assigned treatment and then they were again exposed to BLS for 1 h. Mechanical facial (FIG. 1; B) and hindpaw (FIG. 1; D) allodynia was measured over a 5 h time course.
Sumatriptan-treated, but not saline-treated, rats developed generalized allodynia during minipump infusion measured in the periorbital and hindpaw regions (FIG. 1; A, C; day 6). Mechanical thresholds returned to baseline on days 10 and 19. […]

[4] = CNS penetration (brain:plasma ratio); type: in vivo; conditions: rat, whole brain homogenate and plasma, intravenous; total brain:plasma ratio adjusted for plasma protein binding and brain tissue binding; read-out: unbound (free) brain:plasma ratio
Description: Central nervous system (CNS) penetration of compounds of the invention can be determined by for example, intravenous dosing in a rat and subsequent quantitative LCMS analysis of the drug concentration in plasma and whole brain homogenate. The total brain:plasma ratio can then be calculated. This total ratio can be adjusted for plasma protein binding (PPB) and brain tissue binding (BTB) determined by standard means to give an unbound (free) brain:plasma ratio. For example, Compound 4 of the invention has an unbound (free) brain:plasma ratio of 0.72, indicating good CNS penetration of the compound.

[5] = phase IIb chronic migraine study; cited from earlier work
[6] = tested on: sumatriptan-primed rats; conditions: Kopruszinski et al, Cephalalgia, 2017; cited from earlier work

Molecule: C[C@@](Cc1ccc(O)c(O)c1)(NN)C(=O)O [(S)-Carbidopa, reference compound]
- inhibition of VAP-1 [1]: very good inhibitors of VAP-1
- IC50 [2]: 0.142 µM

Molecule: C=C(CNN)c1ccccc1 [LJP1207, reference compound]
- IC50 [2]: 0.034 µM

Molecule: NC(CO)C(=O)NNCc1ccc(O)c(O)c1O (stereo not drawn) [benserazide, Benserazide]
- inhibition of VAP-1 [1]: very good inhibitors of VAP-1

B1: TEV48125: a fully humanised CGRP antibody (antibody, chains of the INN, looked up, V domains shown)
VH: EVQLVESGGGLVQPGGSLRLSCAASGFTFSNYWISWVRQAPGKGLEWVAEIRSESDASATHYAEAVKGRFTISRDNAKNSLYLQMNSLRAEDTAVYYCLAYFDYGLAIQNYWGQGTLVTVSS
VL: EIVLTQSPATLSLSPGERATLSCKASKRVTTYVSWYQQKPGQAPRLLIYGASNRYLGIPARFSGSGSGTDFTLTISSLEPEDFAVYYCSQSYNYPYTFGQGTKLEIK
- efficacy in human clinical trials [5]: efficacious
- efficacy in the MOH model [6]: efficacious

More lines, main results first:

- IC50 [2]: 0.031 µM
Molecule: CC(=O)N1CCN(c2ccc(-c3nc4ccncc4n3-c3ccc(F)cc3)cn2)CC1 [Compound 2, 1-(4-{5-[3-(4-Fluorophenyl)-3H-imidazo[4,5-c]pyridin-2-yl]pyridin-2-yl}piperazin-1-yl)ethan-1-one]

- IC50 [2]: 0.004 µM
Molecule: CS(=O)(=O)N1CCN(c2ccc(-c3nc4ccncc4n3-c3ccc(F)cc3)cn2)CC1 [Compound 3, 1-{5-[3-(4-Fluorophenyl)-3H-imidazo[4,5-c]pyridin-2-yl]pyridin-2-yl}-4-methanesulfonylpiperazine]

- IC50 [2]: 0.013 µM
- unbound brain:plasma ratio (Kp,uu) [4]: 0.72
Molecule: Fc1ccc(-n2c(-c3ccc(N4CCOCC4)nc3)nc3ccncc32)cc1 [Compound 4, 4-{5-[3-(4-Fluorophenyl)-3H-imidazo[4,5-c]pyridin-2-yl]pyridin-2-yl}morpholine]
- stress-induced hindpaw allodynia [3]: significantly reduced
- stress-induced periorbital allodynia [3]: significantly reduced
